# Test results published in patent US20090269365A1, “IMMUNOGENIC VACCINIA PEPTIDES AND METHODS OF USING SAME” (priority 2005, published 2009).
# pEC50: −log10 of the molar value.
# Assays:
# Type in all cases: cell-based, human
# [1] = test system: bulk vaccinia-specific CD8 CTL
# [2] = test system: vaccinia-specific CD8 CTL clones; settings: read-out: EC50 in CTL assays
# CD4+ T-cells = settings: humans, Example 2
# [3] = test system: bulk vaccinia-specific CD8 CTL; remark: listed apart in the source
sequence,measurement,setting,value
EEQELLLLY [F3 41-49],"IFN-γ secretion by bulk CTL, in words",[1],again detectable
same,pEC50,[2],~8.00
KIQNVIIDECY [L1R 127-137],"CD4+ T-cell reactivity, in words",CD4+ T-cells,reacts with CD4+ T-cells
NPITKTTSDYQDSDVSQEVR [A33R 157-176],"CD4+ T-cell reactivity, in words",CD4+ T-cells,containing the epitope
TKTTSDYQDSDVSQ [A33R 160-173],"CD4+ T-cell reactivity, in words",CD4+ T-cells,epitope region has been further narrowed down
VWINNSWKF [D5R 349-357],"IFN-γ ICC response relative to DMSO background, in words",[3],detection of IFN-γ-bright cells at a level above the background
WLKIKRDYL [A50R 395-403],net ICC response (peptide minus DMSO),[3],~1.55%
same,percentage of bulk CTL positive for IFN-γ by ICC,[3],2.95%
YEFRKVKSY [A3L 264-272],"IFN-γ secretion by bulk CTL, in words",[1],positive
same,"IFN-γ ICC response relative to DMSO background, in words",[3],positive
